Measurements: patent EP4722212A1, “NOVEL COMPOUND FOR INHIBITING PROTEIN KINASES AND PHARMACEUTICAL COMPOSITION COMPRISING SAME” (Magicbullettherapeutics Co., Ltd., priority 2023, dated 2024)
Where two headings read alike, the source gives them in different places.

Assays:
Assay in all cases: Kinase panel
Assay type in all cases: biochemical
[1] = molecular target: DYRK1B (Homo sapiens, UniProt Q9Y463); conditions: read-out: residual enzyme activity
Summary of the method: (§1)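 Values report residual kinase activity remaining after treatment with 1 µM compound in a biochemical panel assay. Enzymes retaining 40% or less of their activity, equivalent to at least 60% inhibition, were listed.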

[2] = molecular target: STK38/NDR1 (Homo sapiens, UniProt Q15208); conditions: STK38/NDR1, 1 µM; read-out: residual enzyme activity
Summary of the method: as §1

[3] = molecular target: CDK6/CYCLIN D1 (Homo sapiens, UniProt Q00534); conditions: CDK6/cyclin D1, 1 µM; read-out: residual enzyme activity
Summary of the method: as §1

[4] = molecular target: SGK1 (Homo sapiens, UniProt O00141); conditions: SGK1, 1 µM; read-out: residual enzyme activity
Summary of the method: as §1

[5] = molecular target: PKCB1 (Homo sapiens, UniProt P05771); conditions: read-out: residual enzyme activity
Summary of the method: as §1

[6] = molecular target: CAMKK2 (Homo sapiens, UniProt Q96RR4); conditions: CAMKK2, 1 µM; read-out: residual enzyme activity
Summary of the method: as §1

[7] = molecular target: KHS/MAP4K5 (Homo sapiens, UniProt Q9Y4K4); conditions: KHS/MAP4K5, 1 µM; read-out: residual enzyme activity
Summary of the method: as §1

[8] = molecular target: RSK4 (Homo sapiens, UniProt Q9UK32); conditions: RSK4, 1 µM; read-out: residual enzyme activity
Summary of the method: as §1

[9] = molecular target: PIM1 (Homo sapiens, UniProt P11309); conditions: PIM1, 1 µM; read-out: residual enzyme activity
Summary of the method: as §1

[10] = molecular target: NEK7 (Homo sapiens, UniProt Q8TDX7); conditions: NEK7, 1 µM; read-out: residual enzyme activity
Summary of the method: as §1

[11] = molecular target: SBK1 (Homo sapiens, UniProt Q52WX2); conditions: SBK1, 1 µM; read-out: residual enzyme activity
Summary of the method: as §1

[12] = molecular target: AURORA C (Homo sapiens, UniProt Q9UQB9); conditions: read-out: residual enzyme activity
Summary of the method: as §1

[13] = molecular target: MNK1 (Homo sapiens, UniProt Q9BUB5); conditions: MNK1, 1 µM; read-out: residual enzyme activity
Summary of the method: as §1

[14] = molecular target: SSTK/TSSK6 (Homo sapiens, UniProt Q9BXA6); conditions: SSTK/TSSK6, 1 µM; read-out: residual enzyme activity
Summary of the method: as §1

[15] = molecular target: TNK1 (Homo sapiens, UniProt Q13470); conditions: TNK1, 1 µM; read-out: residual enzyme activity
Summary of the method: as §1

[16] = molecular target: GRK5 (Homo sapiens, UniProt P34947); conditions: GRK5, 1 µM; read-out: residual enzyme activity
Summary of the method: as §1

[17] = molecular target: CK1A1 (Homo sapiens, UniProt P48729); conditions: read-out: residual enzyme activity
Summary of the method: as §1

[18] = molecular target: CHK1 (Homo sapiens, UniProt O14757); conditions: CHK1, 1 µM; read-out: residual enzyme activity
Summary of the method: as §1

[19] = molecular target: LYN B (Homo sapiens, UniProt P07948); conditions: read-out: residual enzyme activity
Summary of the method: as §1

[20] = molecular target: MLK4 (Homo sapiens, UniProt Q5TCX8); conditions: MLK4, 1 µM; read-out: residual enzyme activity
Summary of the method: as §1

[21] = molecular target: T1, ACK1 (Homo sapiens, UniProt Q07912); conditions: ACK1, 1 µM; read-out: residual enzyme activity
T1 construct: purchased Reaction Biology (RBC)
Summary of the method: as §1

[22] = molecular target: CAMK2A (Homo sapiens, UniProt Q9UQM7); conditions: read-out: residual enzyme activity
Summary of the method: as §1

[23] = molecular target: CLK1 (Homo sapiens, UniProt P49759); conditions: CLK1, 1 µM; read-out: residual enzyme activity
Summary of the method: as §1

[24] = molecular target: WNK1 (Homo sapiens, UniProt Q9H4A3); conditions: WNK1, 1 µM; read-out: residual enzyme activity
Summary of the method: as §1

[25] = molecular target: PKCD (Homo sapiens, UniProt Q05655); conditions: read-out: residual enzyme activity
Summary of the method: as §1

[26] = molecular target: DYRK1/DYRK1A (Homo sapiens, UniProt Q13627); conditions: read-out: residual enzyme activity
Summary of the method: as §1

[27] = molecular target: TESK1 (Homo sapiens, UniProt Q15569); conditions: TESK1, 1 µM; read-out: residual enzyme activity
Summary of the method: as §1

[28] = molecular target: CDK1/CYCLIN A (Homo sapiens, UniProt P06493); conditions: read-out: residual enzyme activity
Summary of the method: as §1

[29] = molecular target: EPHA7 (Homo sapiens, UniProt Q15375); conditions: EPHA7, 1 µM; read-out: residual enzyme activity
Summary of the method: as §1

[30] = molecular target: ERBB2/HER2 (Homo sapiens, UniProt P04626); conditions: ERBB2/HER2, 1 µM; read-out: residual enzyme activity
Summary of the method: as §1

[31] = molecular target: EPHA1 (Homo sapiens, UniProt P21709); conditions: EPHA1, 1 µM; read-out: residual enzyme activity
Summary of the method: as §1

[32] = molecular target: PLK1 (Homo sapiens, UniProt P53350); conditions: PLK1, 1 µM; read-out: residual enzyme activity
Summary of the method: as §1

[33] = molecular target: FYN (Homo sapiens, UniProt P06241); conditions: read-out: residual enzyme activity
Summary of the method: as §1

Sequence of WNK1 (Q9H4A3 whole entry, species assumed): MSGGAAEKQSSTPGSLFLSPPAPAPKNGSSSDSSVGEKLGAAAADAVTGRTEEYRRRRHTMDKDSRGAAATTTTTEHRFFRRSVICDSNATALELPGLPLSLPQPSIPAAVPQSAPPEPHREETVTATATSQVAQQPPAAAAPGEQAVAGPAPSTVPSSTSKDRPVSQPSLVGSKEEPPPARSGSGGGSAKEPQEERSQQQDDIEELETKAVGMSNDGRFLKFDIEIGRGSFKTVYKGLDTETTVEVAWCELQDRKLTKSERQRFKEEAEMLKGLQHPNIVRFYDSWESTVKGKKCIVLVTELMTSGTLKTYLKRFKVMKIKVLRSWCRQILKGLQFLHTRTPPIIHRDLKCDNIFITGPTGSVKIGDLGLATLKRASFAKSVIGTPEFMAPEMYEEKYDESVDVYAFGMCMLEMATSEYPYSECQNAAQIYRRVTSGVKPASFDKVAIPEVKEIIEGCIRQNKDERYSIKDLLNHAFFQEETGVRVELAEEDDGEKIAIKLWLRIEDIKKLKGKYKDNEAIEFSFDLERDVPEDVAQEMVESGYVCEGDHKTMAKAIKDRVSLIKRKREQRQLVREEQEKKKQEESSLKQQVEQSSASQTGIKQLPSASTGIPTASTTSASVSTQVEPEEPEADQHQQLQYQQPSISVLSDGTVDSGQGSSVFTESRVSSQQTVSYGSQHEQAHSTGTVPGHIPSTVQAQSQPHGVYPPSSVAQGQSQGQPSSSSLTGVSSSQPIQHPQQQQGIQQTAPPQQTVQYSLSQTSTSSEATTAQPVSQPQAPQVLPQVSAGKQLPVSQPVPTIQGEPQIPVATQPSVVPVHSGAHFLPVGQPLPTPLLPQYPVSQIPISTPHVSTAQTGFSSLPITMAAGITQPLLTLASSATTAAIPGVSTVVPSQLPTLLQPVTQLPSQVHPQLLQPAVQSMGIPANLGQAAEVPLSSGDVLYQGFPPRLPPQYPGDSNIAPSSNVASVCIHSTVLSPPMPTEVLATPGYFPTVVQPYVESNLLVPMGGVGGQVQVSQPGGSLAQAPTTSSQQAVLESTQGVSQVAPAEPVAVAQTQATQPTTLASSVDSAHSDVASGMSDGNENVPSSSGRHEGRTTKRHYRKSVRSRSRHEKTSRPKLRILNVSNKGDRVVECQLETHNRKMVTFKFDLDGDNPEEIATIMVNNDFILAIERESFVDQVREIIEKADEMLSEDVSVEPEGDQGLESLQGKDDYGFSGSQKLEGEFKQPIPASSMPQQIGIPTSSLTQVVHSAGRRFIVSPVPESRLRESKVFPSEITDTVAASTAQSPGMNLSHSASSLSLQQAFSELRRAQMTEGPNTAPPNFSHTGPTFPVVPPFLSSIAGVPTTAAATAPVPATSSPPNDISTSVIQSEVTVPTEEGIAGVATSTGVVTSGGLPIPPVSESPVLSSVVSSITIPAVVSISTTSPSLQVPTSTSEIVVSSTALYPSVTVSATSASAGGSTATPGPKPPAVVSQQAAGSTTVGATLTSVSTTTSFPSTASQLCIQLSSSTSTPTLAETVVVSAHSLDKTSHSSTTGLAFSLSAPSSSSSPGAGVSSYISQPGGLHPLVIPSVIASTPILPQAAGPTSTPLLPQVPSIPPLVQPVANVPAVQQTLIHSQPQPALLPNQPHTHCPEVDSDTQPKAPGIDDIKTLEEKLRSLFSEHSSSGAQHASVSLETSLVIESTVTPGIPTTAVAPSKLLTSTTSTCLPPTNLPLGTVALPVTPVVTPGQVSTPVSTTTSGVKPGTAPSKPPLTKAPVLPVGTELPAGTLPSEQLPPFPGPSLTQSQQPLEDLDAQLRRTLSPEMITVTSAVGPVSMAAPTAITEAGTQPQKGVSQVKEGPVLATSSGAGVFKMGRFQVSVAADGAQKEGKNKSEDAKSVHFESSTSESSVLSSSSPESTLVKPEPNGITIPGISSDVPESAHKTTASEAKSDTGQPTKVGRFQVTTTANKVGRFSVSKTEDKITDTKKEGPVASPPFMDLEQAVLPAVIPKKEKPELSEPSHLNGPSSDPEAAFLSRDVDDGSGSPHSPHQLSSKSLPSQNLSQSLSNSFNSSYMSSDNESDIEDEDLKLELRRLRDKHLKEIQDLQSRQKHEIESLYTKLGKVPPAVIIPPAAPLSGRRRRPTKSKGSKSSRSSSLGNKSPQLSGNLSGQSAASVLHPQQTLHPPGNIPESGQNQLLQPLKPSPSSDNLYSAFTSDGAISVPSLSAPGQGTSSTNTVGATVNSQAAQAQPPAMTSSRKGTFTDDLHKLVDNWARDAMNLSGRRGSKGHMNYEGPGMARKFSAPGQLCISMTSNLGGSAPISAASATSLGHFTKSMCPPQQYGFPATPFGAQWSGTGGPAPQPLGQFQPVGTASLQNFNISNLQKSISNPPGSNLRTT
Sequence of STK38/NDR1 (Q15208 whole entry): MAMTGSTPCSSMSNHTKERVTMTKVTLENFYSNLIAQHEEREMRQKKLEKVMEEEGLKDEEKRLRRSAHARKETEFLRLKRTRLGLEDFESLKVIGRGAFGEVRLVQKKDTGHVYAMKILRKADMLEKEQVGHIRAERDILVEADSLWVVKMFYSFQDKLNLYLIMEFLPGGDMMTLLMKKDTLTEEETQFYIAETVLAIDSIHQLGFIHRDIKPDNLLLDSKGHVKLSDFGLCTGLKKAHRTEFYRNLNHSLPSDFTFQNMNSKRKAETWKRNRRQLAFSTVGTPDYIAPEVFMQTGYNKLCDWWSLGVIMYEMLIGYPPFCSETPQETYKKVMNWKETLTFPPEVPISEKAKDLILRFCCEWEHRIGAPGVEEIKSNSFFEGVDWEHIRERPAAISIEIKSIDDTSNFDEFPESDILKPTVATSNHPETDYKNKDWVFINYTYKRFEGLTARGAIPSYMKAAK
Sequence of CLK1 (P49759 whole entry): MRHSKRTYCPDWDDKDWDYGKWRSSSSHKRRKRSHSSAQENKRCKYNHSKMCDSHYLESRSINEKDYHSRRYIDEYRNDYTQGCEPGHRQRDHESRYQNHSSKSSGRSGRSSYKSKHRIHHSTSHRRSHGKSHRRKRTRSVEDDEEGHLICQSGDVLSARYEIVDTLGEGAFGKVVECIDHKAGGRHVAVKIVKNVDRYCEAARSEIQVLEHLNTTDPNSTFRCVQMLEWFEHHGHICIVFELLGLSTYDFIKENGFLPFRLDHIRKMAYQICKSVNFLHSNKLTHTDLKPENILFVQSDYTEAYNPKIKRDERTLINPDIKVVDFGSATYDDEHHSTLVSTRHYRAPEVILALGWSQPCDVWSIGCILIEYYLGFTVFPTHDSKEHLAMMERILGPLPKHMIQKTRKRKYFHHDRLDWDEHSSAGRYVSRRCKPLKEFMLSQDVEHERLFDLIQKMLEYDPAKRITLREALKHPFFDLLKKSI
Sequence of TESK1 (Q15569 whole entry, species assumed): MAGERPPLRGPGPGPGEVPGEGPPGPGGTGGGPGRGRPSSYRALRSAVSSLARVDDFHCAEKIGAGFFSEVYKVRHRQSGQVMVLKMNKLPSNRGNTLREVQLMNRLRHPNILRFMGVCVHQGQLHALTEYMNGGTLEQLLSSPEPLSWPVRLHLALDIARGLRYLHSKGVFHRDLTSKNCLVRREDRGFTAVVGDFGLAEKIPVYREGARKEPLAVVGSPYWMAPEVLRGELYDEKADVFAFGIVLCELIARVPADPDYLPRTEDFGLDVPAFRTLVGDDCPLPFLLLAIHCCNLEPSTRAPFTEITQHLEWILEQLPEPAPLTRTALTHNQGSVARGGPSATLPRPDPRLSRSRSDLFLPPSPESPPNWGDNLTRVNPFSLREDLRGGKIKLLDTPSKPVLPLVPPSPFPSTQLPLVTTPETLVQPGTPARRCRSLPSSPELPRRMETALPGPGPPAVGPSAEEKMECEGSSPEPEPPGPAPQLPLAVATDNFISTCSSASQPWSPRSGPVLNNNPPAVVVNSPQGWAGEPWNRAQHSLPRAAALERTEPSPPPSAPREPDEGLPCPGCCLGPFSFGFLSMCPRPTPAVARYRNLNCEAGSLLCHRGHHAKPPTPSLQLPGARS
Sequence of PKCD (Q05655 whole entry, species assumed): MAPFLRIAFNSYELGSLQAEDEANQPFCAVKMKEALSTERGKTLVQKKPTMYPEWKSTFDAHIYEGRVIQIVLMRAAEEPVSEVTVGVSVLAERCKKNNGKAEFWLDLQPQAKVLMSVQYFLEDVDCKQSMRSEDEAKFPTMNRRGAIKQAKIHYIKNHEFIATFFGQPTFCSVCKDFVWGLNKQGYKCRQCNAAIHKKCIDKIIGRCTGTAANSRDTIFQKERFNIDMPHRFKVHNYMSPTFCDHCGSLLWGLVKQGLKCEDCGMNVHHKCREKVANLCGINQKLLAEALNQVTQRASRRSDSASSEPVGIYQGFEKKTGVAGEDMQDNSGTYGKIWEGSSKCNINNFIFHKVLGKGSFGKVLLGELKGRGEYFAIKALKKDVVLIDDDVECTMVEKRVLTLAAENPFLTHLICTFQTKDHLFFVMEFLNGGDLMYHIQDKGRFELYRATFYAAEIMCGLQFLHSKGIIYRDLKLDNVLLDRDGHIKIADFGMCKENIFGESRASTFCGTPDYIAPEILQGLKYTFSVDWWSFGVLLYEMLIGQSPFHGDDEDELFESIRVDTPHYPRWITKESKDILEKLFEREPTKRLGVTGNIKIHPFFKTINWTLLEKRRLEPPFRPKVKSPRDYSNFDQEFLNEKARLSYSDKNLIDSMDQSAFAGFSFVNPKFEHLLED
Sequence of NEK7 (Q8TDX7 whole entry, species assumed): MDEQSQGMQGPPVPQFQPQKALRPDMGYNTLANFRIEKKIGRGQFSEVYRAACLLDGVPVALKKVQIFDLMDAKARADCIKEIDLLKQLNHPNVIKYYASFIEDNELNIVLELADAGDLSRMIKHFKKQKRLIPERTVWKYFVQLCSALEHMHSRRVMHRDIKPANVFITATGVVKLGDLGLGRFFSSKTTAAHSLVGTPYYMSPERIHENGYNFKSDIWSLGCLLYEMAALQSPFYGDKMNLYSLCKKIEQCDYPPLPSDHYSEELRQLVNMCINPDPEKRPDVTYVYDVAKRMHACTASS

Structure (SMILES)	remaining activity at 1 µM [1] [%]	remaining activity at 1 µM [2] [%]	remaining activity at 1 µM [3] [%]	remaining activity at 1 µM [4] [%]	remaining activity at 1 µM [6] [%]	remaining activity at 1 µM [7] [%]	remaining activity at 1 µM [8] [%]	remaining activity at 1 µM [9] [%]	remaining activity at 1 µM [10] [%]	remaining activity at 1 µM [11] [%]	remaining activity at 1 µM [12] [%]	remaining activity at 1 µM [13] [%]	remaining activity at 1 µM [14] [%]	remaining activity at 1 µM [15] [%]	remaining activity at 1 µM [16] [%]	remaining activity at 1 µM [18] [%]	remaining activity at 1 µM [19] [%]	remaining activity at 1 µM [20] [%]	remaining activity at 1 µM [21] [%]	remaining activity at 1 µM [23] [%]	other results
Cc1ccc(Nc2ncc3c(n2)C2(CC2)C(=O)N(c2cc(NC(=O)c4cccc(C(F)(F)F)c4)ccc2C)C3)cn1 [Compound 51, N-(4-methyl-3-(2'-((6-methylpyridin-3-yl)amino)-7'-oxo-5'H-spiro[cyclopropane-1,8'-pyrido[4,3-d]pyrimidine]-6'(7'H)-yl)phenyl)-3-(trifluoromethyl)benzamide]	> 40	> 40	> 40	> 40	> 40	≤ 40	> 40	> 40	> 40	> 40	> 40	> 40	> 40	≤ 40	> 40	> 40	≤ 40	> 40	≤ 40	> 40	remaining activity at 1 µM ([5]; PKCbl, 1 µM): > 40%; remaining activity at 1 µM ([17]; CKlal, 1 µM): > 40%; remaining activity at 1 µM ([22]; CAMK2a): > 40%; remaining activity at 1 µM [24]: > 40%; remaining activity at 1 µM [25]: > 40%; remaining activity at 1 µM [26]: > 40%; remaining activity at 1 µM [27]: ≤ 40%; remaining activity at 1 µM [28]: > 40%; remaining activity at 1 µM [29]: ≤ 40%; remaining activity at 1 µM [30]: ≤ 40%; remaining activity at 1 µM [31]: ≤ 40%; remaining activity at 1 µM [32]: > 40%; remaining activity at 1 µM [33]: ≤ 40%
Cc1cn(-c2cc(C(=O)Nc3ccc(C)c(N4Cc5cnc(NC6CC6)nc5C5(CC5)C4=O)c3)cc(C(F)(F)F)c2)cn1 [Compound 8, N-(3-(2'-(cyclopropylamino)-7'-oxo-5'H-spiro[cyclopropane-1,8'-pyrido[4,3-d]pyrimidine]-6'(7'H)-yl)-4-methylphenyl)-3-(4-methyl-1H-imidazol-1-yl)-5-(trifluoromethyl)benzamide]	> 40	> 40	> 40	> 40	> 40	≤ 40	> 40	> 40	> 40	> 40	> 40	> 40	> 40	≤ 40	> 40	> 40	≤ 40	> 40	≤ 40	> 40	remaining activity at 1 µM ([5]; PKCB1, 1 µM): > 40%; remaining activity at 1 µM ([17]; CK1A1, 1 µM): > 40%; remaining activity at 1 µM ([22]; CAMK2A): > 40%; remaining activity at 1 µM [24]: > 40%; remaining activity at 1 µM [25]: > 40%; remaining activity at 1 µM [26]: > 40%; remaining activity at 1 µM [27]: ≤ 40%; remaining activity at 1 µM [28]: > 40%; remaining activity at 1 µM [29]: ≤ 40%; remaining activity at 1 µM [30]: ≤ 40%; remaining activity at 1 µM [31]: ≤ 40%; remaining activity at 1 µM [32]: > 40%; remaining activity at 1 µM [33]: ≤ 40%
